pIC50: −log10 of the molar value.
Assays:
[1] = tested on: CD4+ T-cells and dendritic cells; assay: I-MUNE assay: CD4+ T-cell proliferation to 15-mer peptide sets presented by dendritic cells; type: cell-based, human; parameters: Structure Value: scale not given here; quantitative response among responders: unit not given here; conditions: for effect of substitution on percent of responders to the epitope: peptide #49 variants, 69 donors; for response to the peptide: beta-lactamase peptide set, 3× above the background; for statistical significance of the peptide response: conservative and non-conservative Poisson methods; for Average percent response to epitope peptide: Table 6, repeat tests of the epitope peptide on discrete donor groups; for Response/Peptide: SI>2.95
Description: All peptides were obtained from a commercial source (Mimotopes, San Diego, C-A). For the I-MUNE® assay system described herein, 15-mer peptides offset by 3 amino acids that described the entire sequence of the proteins of interest were synthesized in a multipin format (See, Maeji et al., J. Immunol. Meth., 134:23-33 [1990]). Peptides were resuspended in DMSO at approximately 1 to 2 mg/ml, and stored at −70° C. prior to use. Each peptide was tested at least in duplicate, although for small peptide sets (e.g., Ber e 1), the peptides were routinely tested in triplicate.
Volunteer donor human blood buffy coat samples were obtained from two commercial sources (Stanford Blood Center, Palo Alto, Calif., and the Sacramento Medical Foundation, Sacramento, Calif.). Buffy coat samples were further purified by density separation. Each sample was HLA typed for HLA-DR and HLA-DQ using a commercial PCR-based kit (Bio-Synthesis).
Monocytes were purified by adherence to plastic in AIM V medium (Gibco/Life Technologies). Adherent cells were cultured in AIM V media containing 500 units/ml of recombinant human IL-4 (Endogen) and 800 units/ml recombinant human GM-CSF (Endogen) for 5 days. On day 5, recombinant human IL-1α (Endogen) and recombinant human TNF-α (Endogen) were added to 50 units/ml and 0.2 units/ml, respectively. On day 7, the fully matured dendritic cells were treated with 50 μg/ml mitomycin C (Sigma) for 1 hour at 37° C. Treated dendritic cells were dislodged with 50 mM EDTA in PBS, washed in AIM V medium, counted, and resuspended in AIM V media at 2×10^5 cells/ml.
CD4^+ T-cells were purified by negative selection from frozen aliquots of human peripheral blood mononuclear cells (PBMC) using Cellect CD4 columns (Cedarlane). […] CD4^+ T-cells were resuspended in AIM V media at 2×10^6 cells per ml.
CD4^+ T-cells and dendritic cells were plated in round-bottomed 96 well format plates at 100 μl of each cell mix per well. Peptide was added to a final concentration of approximately 5 ug/ml in 0.25-0.5% DMSO. Control wells contained 0.5% DMSO without added peptide. Each peptide was tested in duplicate. Cultures were incubated at 37° C., in 5% CO2 for 5 days. On day 5, 0.5 uCi of tritiated thymidine (NEN DuPont) was added to each well. On day 6, the cultures were harvested onto glass fiber mats using a TomTec manual harvester (TomTec), then processed for scintillation counting. Proliferation was assessed by determining the average counts per minute (CPM) value for each set of duplicate wells (TriLux Beta). This method is also described in U.S. Pat. No. 6,218,165 and Stickler et al., J. Immunother. 23: 654-660 (2000), both of which are herein incorporated by reference.
For each individual buffy coat sample, the average CPM values obtained in the I-MUNE® assay for all of the peptides were analyzed. The average CPM values for each peptide were divided by the average CPM value for the control (DMSO only) wells to determine the “stimulation index” (SI). Donors were tested with each peptide set until an average of at least two responses per peptide were compiled. The data for each protein was graphed showing the percent responders to each peptide within the set. A positive response was collated if the SI value was equal to or greater than 2.95. This value was chosen as it approximates a difference of three standard deviations in a normal population distribution. For each protein assessed, positive responses to individual peptides by individual donors were compiled. To determine the background response for a given protein, the percent responders for each peptide in the set were averaged and a standard deviation was calculated. SI values for each donor were compiled for each peptide set, and the percent of responders reported.

HLA-DR6(13) = assay: Peptide binding competition assay, HLA class II; parameters: species or system human; conditions: competition with standard peptide
Description: In addition to the above I-MUNE® assay, peptide binding assays were also performed. The peptide binding assay used during the development of the present invention is known in the art (Southwood et al., J. Immunol., 160:3363-3373 [1998]). Briefly, HLA-DR and -DQ molecules were purified from a panel of EBV transformed cell lines. A competition assay was performed with a characterized standard peptide, and the unknown peptide. The amount of unknown peptide required to compete 50% of the standard peptide binding was then determined (indicated as the IC50).
The IC50 for HLA class II protein binding was determined for peptide epitopes defined by the in two related industrial bacterial proteases (See, FIG. 17). The peptides were tested in a competition assay for binding to 18 different HLA-DR and -DQ proteins. […] This likely explains the association seen in the data for a response to this peptide with HLA-DR6(13) donors (p=0.00015; relative risk=7.22, n=113 donors tested). Those results with values less than 500 nM were considered to be good binders and are highlighted in bold in FIG. 17. Also, in this Figure, degeneracy indicates the number of HLA Class II proteins that bind with an IC50 of less than 500 nM out of the 18 total alleles tested.

[2] = Table 3, Stanford and Sacramento donors

## GTTRLYANASLGLFG (synthetic variant) [I155L]
[1]
  effect of substitution on percent of responders to the epitope: had little effect

## GTTRLYANASVGLFG (synthetic variant) [I155V]
[1]
  effect of substitution on percent of responders to the epitope: increased the percent of responders to the modified epitope sequence

## TGGFGSYVAFLPEKQ (TGGFGSYVAFIPEKQ; listed as Enterobacter cloacae) [Peptide #107]
[1]; DR1+ responders
  quantitative response among responders: 5.4
[1]; DR1− responders
  quantitative response among responders: 4.2
[1]
  response to the peptide: 12.11%
  statistical significance of the peptide response: significant (p<0.05)

## BPN′ Y217L#37: 15-mer epitope peptide number 37 of BPN′ Y217L, amino acids 109-123 (NGIEWAIANNMDVIN)
[1]
  Average percent response to epitope peptide: 12.91%

## ITPLMKAQSVPGMAV (listed as Enterobacter cloacae) [Peptide #6]
[1]
  statistical significance of the peptide response: reached statistical significance using less conservative analyses

## GTTRLYANASIGLFG (listed as Enterobacter cloacae) [Peptide #49]
[1]
  statistical significance of the peptide response: reached statistical significance using less conservative analyses

## BPN′ Y217L #24: 15-mer epitope peptide number 24 of BPN′ Y217L, amino acids 70-84 (GTVAALNNSIGVLGV)
HLA-DR6(13)
  pIC50: 9.16
[1]
  Average percent response to epitope peptide: 11.69%

## Ecotin: serine protease inhibitor from E. coli K12; GenBank Accession No. NP—416713
[1]; Table 3
  Background %: 5.69%
  Response/Peptide: 3.98
[1]; [2]
  Structure Value: 0.64

## MLDLATYTAGGLPLQ (listed as Enterobacter cloacae) [Peptide #36]
[1]; DR1+ responders
  quantitative response among responders: 7.8
[1]; DR1− responders
  quantitative response among responders: 4.42
[1]
  response to the peptide: 12.11%
  statistical significance of the peptide response: significant (p<0.05)

## GTTRSYANASIGLFG (synthetic variant) [L149S]
[1]
  effect of substitution on percent of responders to the epitope: had an effect on the epitope response rate

## GTTRLYANASFGLFG (synthetic variant) [I155F]
[1]
  effect of substitution on percent of responders to the epitope: had little effect

## hTpo: human thrombopoietin
[1]
  structure value, in words: comparatively high
  Average percent response to epitope peptide: 9.18%
[1]; Table 2
  Average Background: 2.56
  Number of epitope regions: 1
  Response per peptide: 2.54
  Structure Value: 0.65
[1]; Table 3
  Background %: 2.53%
  Response/Peptide: 2.24
[1]; [2]
  Structure Value: 0.65
[1]; Table 5, background response value
  Background +/− sd: 2.54 +/− 2.23
[1]; Table 5, determined experimentally
  Responses/peptide found: 2.51
